Measurements taken from US20240092779A1, “USP1 INHIBITORS AND USES THEREOF” (Zentaur Therapeutics USA Inc., priority 2022, published 2024).

What follows are compounds tested against T1, recombinant USP1/UAF1 enzyme complex (Homo sapiens, UniProt O94782) (assay: Enzyme assay: deubiquitinase fluorometric assay with ubiquitin-Rhodamine substrate). Details: USP1/UAF1, Ub-Rho110 substrate, 2 hours preincubation, 1 hour reaction.
T1 construct: purchased Biortus
Type: biochemical
In short: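 IC50 derived by 4-parameter logistic fitting of Ex 485/Em 535 fluorescence after Ub-Rho110 (50 nM) cleavage by 0.004 nM USP1/UAF1 complex. Enzyme and compounds (10-point series, 10 μM–0.5 nM) were preincubated 2 h at room temperature; substrate reaction then ran 1 h before citric acid stop.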

T1 sequence (O94782 whole entry): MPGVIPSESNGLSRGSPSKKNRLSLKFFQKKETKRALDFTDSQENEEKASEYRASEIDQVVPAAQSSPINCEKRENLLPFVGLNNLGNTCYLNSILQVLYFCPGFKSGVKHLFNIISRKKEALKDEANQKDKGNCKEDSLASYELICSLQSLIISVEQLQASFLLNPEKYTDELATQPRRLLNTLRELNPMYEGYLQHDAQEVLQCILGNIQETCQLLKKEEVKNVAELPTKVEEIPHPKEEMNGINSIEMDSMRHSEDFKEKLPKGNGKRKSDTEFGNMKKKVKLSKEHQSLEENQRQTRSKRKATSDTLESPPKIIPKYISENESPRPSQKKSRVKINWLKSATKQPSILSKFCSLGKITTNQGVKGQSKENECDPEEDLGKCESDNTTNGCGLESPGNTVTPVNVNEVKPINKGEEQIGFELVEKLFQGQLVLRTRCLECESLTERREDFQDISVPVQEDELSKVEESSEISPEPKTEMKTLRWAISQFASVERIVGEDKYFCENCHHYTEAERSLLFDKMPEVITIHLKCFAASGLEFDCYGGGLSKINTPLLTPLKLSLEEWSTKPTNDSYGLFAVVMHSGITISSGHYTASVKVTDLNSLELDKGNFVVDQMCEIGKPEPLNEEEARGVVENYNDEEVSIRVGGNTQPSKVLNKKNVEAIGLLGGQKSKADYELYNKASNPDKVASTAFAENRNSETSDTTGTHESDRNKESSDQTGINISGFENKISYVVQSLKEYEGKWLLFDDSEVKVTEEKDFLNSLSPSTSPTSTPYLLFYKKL
T1 sequence (Q8TAF3 whole entry partner): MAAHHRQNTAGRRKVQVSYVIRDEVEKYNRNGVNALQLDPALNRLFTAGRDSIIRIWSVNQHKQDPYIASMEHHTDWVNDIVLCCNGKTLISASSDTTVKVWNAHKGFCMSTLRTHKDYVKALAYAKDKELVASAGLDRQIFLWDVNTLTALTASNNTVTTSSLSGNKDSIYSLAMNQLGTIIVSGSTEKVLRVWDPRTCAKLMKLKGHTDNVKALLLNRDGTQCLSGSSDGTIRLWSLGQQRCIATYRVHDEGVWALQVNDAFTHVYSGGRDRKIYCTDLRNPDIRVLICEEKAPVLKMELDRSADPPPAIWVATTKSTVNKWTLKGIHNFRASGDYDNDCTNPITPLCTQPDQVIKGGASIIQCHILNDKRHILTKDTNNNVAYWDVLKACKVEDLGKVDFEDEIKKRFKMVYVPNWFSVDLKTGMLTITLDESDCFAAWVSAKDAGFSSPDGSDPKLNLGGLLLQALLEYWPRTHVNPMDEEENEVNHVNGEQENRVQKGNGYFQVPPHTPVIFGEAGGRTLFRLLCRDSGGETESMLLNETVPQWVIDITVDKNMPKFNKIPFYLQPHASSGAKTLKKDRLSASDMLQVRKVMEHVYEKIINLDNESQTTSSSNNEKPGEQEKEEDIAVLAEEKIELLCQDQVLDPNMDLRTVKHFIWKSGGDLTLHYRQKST

Structure (SMILES) | IC50 [nM]
COc1ncnc(C2CC2)c1-c1ncc2ccc(=O)n(Cc3ccc(-c4nc(C(F)(F)F)cn4C(C)C)cc3)c2c1F [Compound I-27, 7-(4-cyclopropyl-6-methoxypyrimidin-5-yl)-8-fluoro-1-({4-[1-isopropyl-4-(trifluoromethyl)imidazol-2-yl]phenyl}methyl)-1,6-naphthyridin-2-one] | 10 to 100
COc1ncnc(C2CC2)c1-c1ncc2ccc(=O)n(Cc3ccc(-c4cccc(C(F)(F)F)n4)cc3)c2n1 [Compound I-36, 2-(4-cyclopropyl-6-methoxypyrimidin-5-yl)-8-({4-[6-(trifluoromethyl)pyridin-2-yl]phenyl}methyl)pyrido[2,3-d]pyrimidin-7-one] | 10 to 100

What follows are compounds tested on HCC1806 Ub-PCNA (USP1) (assay: USP1 Western Blot Protocol (HCC1806 Ub-PCNA)). Details: Homo sapiens, HCC1806 cells, 4 hours.
Type: cell-based
In short: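 HCC1806 cells seeded overnight, then treated 4 h at 37 °C with a 5-point, 4-fold dilution series (0.1% DMSO). Lysates immunoblotted for Ub-PCNA with fluorescent detection; inhibition expressed as % vehicle from Ub-PCNA upregulation, IC50 by four-parameter logistic fit.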

Structure (SMILES) | IC50 [nM]
COc1cc(Cn2c(=O)ccc3c(C)nc(-c4c(OC)ncnc4C4CC4)nc32)ccc1-c1nc(C(F)(F)F)cn1C1CC1 [Compound I-152, 8-({4-[1-cyclopropyl-4-(trifluoromethyl)imidazo]-2-yl]-3-methoxyphenylmethyl)-2-(4-cyclopropyl-6-methoxypyrimidin-5-yl)-4-methylpyrido[2,3-d]pyrimidin-7-one] | < 10
COc1ncnc(C2CC2)c1-c1nc(C)c2cc(-c3ncnn3C)c(=O)n(Cc3ccc(-c4nc(C(F)(F)F)cn4C4CC4)cc3)c2n1 [Compound I-167, 8-({4-[1-Cyclopropyl-4-(Trifluoromethyl)Imidazol-2-Yl]Phenyl}Methyl)-2-(4-Cyclopropyl-6-Methoxypyrimidin-5-Yl)-4-Methyl-6-(2-Methyl-1,2,4-Triazol-3-Yl)Pyrido[2,3-d]Pyrimidin-7-One] | 10 to 100
COc1ncnc(C2CC2)c1-c1ncc2cc(-c3c(C)noc3C)c(=O)n(Cc3ccc(-c4nc(C(F)(F)F)cn4C4CC4)cc3)c2n1 [Compound I-155] | < 10
COc1ncnc(C2CC2)c1-c1ncc2cc(-c3ncn(C)n3)c(=O)n(Cc3ccc(-c4nc(C(F)(F)F)cn4C4CC4)cc3)c2n1 [Compound I-153, 8-({4-[1-cyclopropyl-4-(trifluoromethyl)imidazo]-2-yl]phenylmethyl)-2-(4-cyclopropyl-6-methoxypyrimidin-5-yl)-6-(1-methyl-1,2,4-triazol-3-yl)pyrido[2,3-d]pyrimidin-7-one] | < 10
COc1ncnc(C2CC2)c1-c1ncc2ccc(=O)n(Cc3ccc(-c4nc(C(F)(F)F)cn4C(C)C)cc3)c2c1F [Compound I-27, 7-(4-cyclopropyl-6-methoxypyrimidin-5-yl)-8-fluoro-1-({4-[1-isopropyl-4-(trifluoromethyl)imidazol-2-yl]phenyl}methyl)-1,6-naphthyridin-2-one] | 10 to 100
COc1ncnc(C2CC2)c1-c1ncc2cc(-c3cn(C)nn3)c(=O)n(Cc3ccc(-c4nc(C(F)(F)F)cn4C4CC4)cc3)c2n1 [Compound I-150] | < 10
COc1ncnc(C2CC2)c1-c1nc(C)c2cc(C3CCN(C)CC3)c(=O)n(Cc3ccc(-c4nc(C(F)(F)F)cn4C4CC4)cc3)c2n1 [Compound I-157, 8-({4-[1-Cyclopropyl-4-(Trifluoromethyl)Imidazol-2-Yl]Phenyl}Methyl)-2-(4-Cyclopropyl-6-Methoxypyrimidin-5-Yl)-4-Methyl-6-(1-Methylpiperidin-4-Yl)Pyrido[2,3-d]Pyrimidin-7-One] | < 10
COc1ncnc(C2CC2)c1-c1ncc2cc(-c3cnn(C)n3)c(=O)n(Cc3ccc(-c4nc(C(F)(F)F)cn4C4CC4)cc3)c2n1 [Compound I-151] | < 10
COc1ncnc(C2CC2)c1-c1ncc2cc(-c3ncnn3C)c(=O)n(Cc3ccc(-c4nc(C(F)(F)F)cn4C4CC4)cc3)c2n1 [Compound I-156] | 10 to 100
COc1ncnc(C2CC2)c1-c1ncc2cc(-c3ncnn3C)c(=O)n(Cc3ccc(-c4nc(C(F)(F)F)cn4C(C)C)cc3)c2n1 [Compound I-168, 2-(4-Cyclopropyl-6-Methoxypyrimidin-5-Yl)-8-({4-[1-Isopropyl-4-(Trifluoromethyl)Imidazol-2-Yl]Phenyl}Methyl)-6-(2-Methyl-1,2,4-Triazol-3-Yl)Pyrido[2,3-d]Pyrimidin-7-One] | < 10
COc1ncnc(C2CC2)c1-c1nc(C)c2cc(-c3cnn(C)c3)c(=O)n(Cc3ccc(-c4nc(C(F)(F)F)cn4C4CC4)cc3)c2n1 [Compound I-148, 8-({4-[1-Cyclopropyl-4-(Trifluoromethyl)Imidazol-2-Yl]Phenyl}Methyl)-2-(4-Cyclopropyl-6-Methoxypyrimidin-5-Yl)-4-Methyl-6-(1-Methylpyrazol-4-Yl)Pyrido[2,3-d]Pyrimidin-7-One] | < 10
COc1cc(Cn2c(=O)ccc3c(C)nc(-c4c(OC)ncnc4C4CC4)nc32)cc(F)c1-c1nc(C(F)(F)F)cn1C1CC1 [Compound I-163] | < 10
COc1ncnc(C2CC2)c1-c1ncc2ccc(=O)n(Cc3ccc(-c4cccc(C(F)(F)F)n4)cc3)c2n1 [Compound I-36, 2-(4-cyclopropyl-6-methoxypyrimidin-5-yl)-8-({4-[6-(trifluoromethyl)pyridin-2-yl]phenyl}methyl)pyrido[2,3-d]pyrimidin-7-one] | 10 to 100
